Assay [1] deals with T1, cultured rat pituitary cells (Rattus norvegicus, UniProt P35353).
T1 sequence (P35353 24-415): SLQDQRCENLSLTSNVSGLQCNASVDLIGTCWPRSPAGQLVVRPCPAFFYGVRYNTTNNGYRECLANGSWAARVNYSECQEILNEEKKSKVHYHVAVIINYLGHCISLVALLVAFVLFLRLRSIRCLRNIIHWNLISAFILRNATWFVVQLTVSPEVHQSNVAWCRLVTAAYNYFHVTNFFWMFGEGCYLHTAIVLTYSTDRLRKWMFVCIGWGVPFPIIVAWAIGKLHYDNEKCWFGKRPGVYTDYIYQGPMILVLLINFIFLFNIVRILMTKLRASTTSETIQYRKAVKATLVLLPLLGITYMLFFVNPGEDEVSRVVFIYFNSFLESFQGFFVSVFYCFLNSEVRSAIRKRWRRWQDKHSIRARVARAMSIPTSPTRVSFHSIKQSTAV
In words: Stimulation of ACTH and β-endorphin secretion by cultured rat pituitary cells (general procedure of Example III). The class given is cell-based. The conditions noted are these: for secretion of ACTH and β-END-LI: general procedure of Example III. The method, then: The synthetic peptide AHC and oCRF were examined for their effects on the secretion of ACTH and B-endorphin in vitro and was also in vivo. The potency of synthetic oCRF to stimulate the secretion of ACTH and β-endorphin by cultured rat pituitary cells was measured using the procedure as generally set forth in Endocrinology, 91, 562 (1972). […] In.vivo testing is carried out using the general procedure set forth in C. Rivier et al., Science, 218, 377 (1982).

The nature of assay [2]: Lowering of blood pressure, in vivo testing by the general procedure of Example III.

Square brackets hold non-standard residues; d marks the D form. Peptide text beside a SMILES is read from it. * marks the point of attachment. hArg = N=C(N)NCCCC[C@H](N)C(=O)O; Nle = CCCC[C@H](N)C(=O)O; Orn = NCCC[C@H](N)C(=O)O; Bz = O=C(c1ccccc1)*

With `CC[C@H](C)[C@H](NC(=O)[C@@H](NC(=O)[C@H](CC(=O)O)NC(=O)[C@H](CC(C)C)NC(=O)[C@H](CC(C)C)NC(=O)[C@H](CC(C)C)NC(=O)[C@H](CCCNC(=N)N)NC(=O)[C@H](CC(N)=O)NC(=O)[C@H](CC(N)=O)NC(=O)[C@H](C)NC(=O)[C@H](C)NC(=O)[C@H](CCC(N)=O)NC(=O)[C@H](CCC(=O)O)NC(=O)[C@H](CCCCN)NC(=O)[C@H](CCC(=O)O)NC(=O)[C@H](CCCCN)NC(=O)[C@H](CCC(=O)O)NC(=O)[C@H](CCC(N)=O)NC(=O)[C@H](CCCCN)NC(=O)[C@H](CCCNC(=N)N)NC(=O)[C@H](C)NC(=O)[C@H](CCC(=O)O)NC(=O)[C@@H](NC(=O)[C@H](CCSC)NC(=O)[C@H](CCCCN)NC(=O)[C@H](CCCNC(=N)N)NC(=O)[C@H](CC(C)C)NC(=O)[C@H](CC(C)C)NC(=O)[C@H](CCC(=O)O)NC(=O)[C@H](CC(C)C)NC(=O)[C@H](CO)NC(=O)[C@H](CC(C)C)NC(=O)[C@H](CC(=O)O)NC(=O)[C@@H](NC(=O)[C@H](CO)NC(=O)[C@@H](NC(=O)[C@@H]1CCCN1C(=O)[C@@H]1CCCN1C(=O)CNC(=O)[C@@H]1CCC(=O)N1)[C@@H](C)CC)[C@@H](C)CC)[C@@H](C)CC)[C@@H](C)CC)C(N)=O`, the “secretion of ACTH and β-END-LI” value in assay [1] was “stimulates”. Moreover, the “lowering of blood pressure” value in assay [2] is reported as “very significant lowering of blood pressure”.

Take `CCCC[C@H](NC(=O)[C@@H](NC(=O)[C@H](CC(C)C)NC(=O)[C@H](CC(=O)O)NC(=O)[C@H](CC(C)C)NC(=O)[C@H](CO)NC(=O)[C@@H](NC(=O)[C@@H]1CCCN1C(=O)[C@@H]1CCCN1C(=O)[C@H](CCC(=O)O)NC(=O)CNC(=O)c1ccccc1)[C@@H](C)CC)[C@@H](C)O)C(=O)N[C@@H](Cc1c[nH]cn1)C(=O)N[C@@H](CC(C)C)C(=O)N[C@@H](CC(C)C)C(=O)N[C@@H](CCCNC(=N)N)C(=O)N[C@@H](CCC(=O)O)C(=O)N[C@H](C(=O)N[C@@H](CC(C)C)C(=O)N[C@@H](CCC(=O)O)C(=O)N[C@@H](CCSC)C(=O)N[C@@H](C)C(=O)N[C@@H](CCCNC(=N)N)C(=O)N[C@@H](C)C(=O)N[C@@H](CCC(=O)O)C(=O)N[C@@H](CCC(N)=O)C(=O)N[C@@H](CC(C)C)C(=O)N[C@@H](C)C(=O)N[C@@H](CCC(=O)O)C(=O)N[C@@H](CCC(N)=O)C(=O)N[C@@H](C)C(=O)N[C@@H](Cc1c[nH]cn1)C(=O)N[C@@H](CO)C(=O)N[C@@H](CC(N)=O)C(=O)N[C@@H](CCCNC(=N)N)C(=O)N[C@@H](CCCNC(=N)N)C(=O)N[C@@H](CC(C)C)C(=O)N[C@@H](CCSC)C(=O)N[C@@H](CCC(=O)O)C(=O)N[C@H](C(=O)N[C@H](C(N)=O)[C@@H](C)CC)[C@@H](C)CC)C(C)C` (Bz-GEPPISLDLT[Nle]HLLREVLEMARAEQLAEQAHSNRRLMEII-NH2): the “secretion of ACTH and β-END-LI” value in assay [1] was “stimulates”. Besides, in assay [2], the “lowering of blood pressure” value is recorded as “very significant lowering of blood pressure”.

As to `CC[C@H](C)[C@H](NC(=O)[C@@H]1CCCN1C(=O)[C@@H]1CCCN1)C(=O)N[C@@H](CO)C(=O)N[C@@H](CC(C)C)C(=O)N[C@@H](CC(=O)O)C(=O)N[C@@H](CC(C)C)C(=O)N[C@H](C(=O)N[C@@H](CC(C)C)C(=O)N[C@@H](Cc1c[nH]cn1)C(=O)N[C@@H](CC(C)C)C(=O)N[C@@H](CC(C)C)C(=O)N[C@@H](CCCNC(=N)N)C(=O)N[C@@H](CCC(=O)O)C(=O)N[C@@H](CCSC)C(=O)N[C@@H](CC(C)C)C(=O)N[C@@H](CCC(=O)O)C(=O)N[C@@H](CCSC)C(=O)N[C@@H](CCC(=O)O)C(=O)N[C@@H](CCCN)C(=O)N[C@@H](C)C(=O)N[C@@H](CCC(=O)O)C(=O)N[C@@H](CCC(N)=O)C(=O)N[C@@H](CCC(=O)O)C(=O)N[C@@H](C)C(=O)N[C@@H](CCC(=O)O)C(=O)N[C@@H](CCC(N)=O)C(=O)N[C@@H](C)C(=O)N[C@@H](C)C(=O)N[C@@H](CC(C)C)C(=O)N[C@@H](CC(N)=O)C(=O)N[C@@H](CCCNC(=N)N)C(=O)N[C@@H](CCCCNC(=N)N)C(=O)N[C@@H](CC(C)C)C(=O)N[C@@H](CC(C)C)C(=O)N[C@@H](CCC(=O)O)C(=O)N[C@@H](CCC(=O)O)C(=O)N[C@@H](C)C(N)=O)[C@@H](C)O` (H-PPISLDLTLHLLREMLEME[Orn]AEQEAEQAALNR[hArg]LLEEA-NH2), the “secretion of ACTH and β-END-LI” value in assay [1] is “stimulates”. The “lowering of blood pressure” value in assay [2] is “very significant lowering of blood pressure”.

Turning to `CCCC[C@H](NC(=O)[C@H](CCC(=O)O)NC(=O)[C@H](CC(C)C)NC(=O)[C@H](CCCC)NC(=O)[C@H](CCC(=O)O)NC(=O)[C@H](CCCNC(=N)N)NC(=O)[C@H](CC(C)C)NC(=O)[C@H](CC(C)C)NC(=O)[C@H](Cc1c[nH]cn1)NC(=O)[C@H](Cc1ccccc1)NC(=O)[C@@H](NC(=O)[C@H](CC(C)C)NC(=O)[C@H](CC(=O)O)NC(=O)[C@H](CC(C)C)NC(=O)[C@H](CO)NC(=O)[C@@H](NC(=O)[C@@H]1CCCN1C(=O)[C@H]1CCCN1)[C@@H](C)CC)[C@@H](C)O)C(=O)N[C@@H](C)C(=O)N[C@@H](CCCCN)C(=O)N[C@@H](C)C(=O)N[C@@H](CCC(=O)O)C(=O)N[C@@H](CCC(N)=O)C(=O)N[C@@H](CCC(=O)O)C(=O)N[C@@H](C)C(=O)N[C@@H](CCC(=O)O)C(=O)N[C@@H](CCC(N)=O)C(=O)N[C@@H](C)C(=O)N[C@@H](C)C(=O)N[C@@H](CC(C)C)C(=O)N[C@@H](CC(N)=O)C(=O)N[C@@H](CCCNC(=N)N)C(=O)N[C@@H](CC(C)C)C(=O)N[C@@H](CC(C)C)C(=O)N[C@@H](CC(C)C)C(=O)N[C@@H](CCC(=O)O)C(=O)N[C@@H](CCC(=O)O)C(=O)N[C@@H](C)C(N)=O` [[D-Pro^4, Nle^18,21]-AHC(4-41)] (H-[dP]PISLDLTFHLLRE[Nle]LE[Nle]AKAEQEAEQAALNRLLLEEA-NH2), in assay [2], the “lowering of blood pressure” value was “very significant lowering of blood pressure”.

On to `CCCC[C@H](NC(=O)[C@H](CCC(=O)O)NC(=O)[C@H](CC(C)C)NC(=O)[C@@H](NC(=O)[C@H](CCC(=O)O)NC(=O)[C@H](CCCNC(=N)N)NC(=O)[C@H](CC(C)C)NC(=O)[C@H](CC(C)C)NC(=O)[C@H](Cc1c[nH]cn1)NC(=O)[C@H](Cc1ccccc1)NC(=O)[C@@H](NC(=O)[C@H](CC(C)C)NC(=O)[C@H](CC(=O)O)NC(=O)[C@H](CC(C)C)NC(=O)[C@H](CO)NC(=O)[C@@H](NC(=O)[C@@H]1CCCN1C(=O)[C@H]1CCCN1)[C@@H](C)CC)[C@@H](C)O)C(C)C)C(=O)N[C@@H](C)C(=O)N[C@@H](CCCNC(=N)N)C(=O)N[C@@H](C)C(=O)N[C@@H](CCC(=O)O)C(=O)N[C@@H](CCC(N)=O)C(=O)N[C@@H](CC(C)C)C(=O)N[C@@H](C)C(=O)N[C@@H](CCC(N)=O)C(=O)N[C@@H](CCC(N)=O)C(=O)N[C@@H](C)C(=O)N[C@@H](Cc1c[nH]cn1)C(=O)N[C@@H](CO)C(=O)N[C@@H](CC(N)=O)C(=O)N[C@@H](CCCNC(=N)N)C(=O)N[C@@H](CCCCN)C(=O)N[C@@H](CC(C)C)C(=O)N[C@@H](CCSC)C(=O)N[C@@H](CCC(=O)O)C(=O)N[C@H](C(=O)N[C@H](C(N)=O)[C@@H](C)CC)[C@@H](C)CC` [[D-Pro^4, Nle^21,38]-rCRF(4-41)] (H-[dP]PISLDLTFHLLREVLE[Nle]ARAEQLAQQAHSNRKLMEII-NH2), for which, in assay [1], the “secretion of ACTH and β-END-LI” value was “stimulates the secretion of ACTH and B-END-LI in an amount greater than oCRF”. The “lowering of blood pressure” value in assay [2] was “very significant lowering of blood pressure”.

As to `CCCC[C@H](NC(=O)[C@H](CCC(=O)O)NC(=O)[C@H](CC(C)C)NC(=O)[C@H](CCCC)NC(=O)[C@H](CCC(=O)O)NC(=O)[C@H](CCCNC(=N)N)NC(=O)[C@H](CC(C)C)NC(=O)[C@H](CC(C)C)NC(=O)[C@H](Cc1c[nH]cn1)NC(=O)[C@H](Cc1ccccc1)NC(=O)[C@@H](NC(=O)[C@H](CC(C)C)NC(=O)[C@H](CC(=O)O)NC(=O)[C@H](CC(C)C)NC(=O)[C@H](CO)NC(=O)[C@@H](NC(=O)[C@@H]1CCCN1C(=O)[C@H]1CCCN1C(=O)[C@H](N)Cc1ccc(O)cc1)[C@@H](C)CC)[C@@H](C)O)C(=O)N[C@@H](C)C(=O)N[C@@H](CCCCN)C(=O)N[C@@H](C)C(=O)N[C@@H](CCC(=O)O)C(=O)N[C@@H](CCC(N)=O)C(=O)N[C@@H](CCC(=O)O)C(=O)N[C@@H](C)C(=O)N[C@@H](CCC(=O)O)C(=O)N[C@@H](CCC(N)=O)C(=O)N[C@@H](C)C(=O)N[C@@H](C)C(=O)N[C@@H](CC(C)C)C(=O)N[C@@H](CC(N)=O)C(=O)N[C@@H](CCCNC(=N)N)C(=O)N[C@@H](CC(C)C)C(=O)N[C@@H](CC(C)C)C(=O)N[C@@H](CC(C)C)C(=O)N[C@@H](CCC(=O)O)C(=O)N[C@@H](CCC(=O)O)C(=O)N[C@@H](C)C(N)=O` [[D-Tyr^3, D-Pro^4, Nle^18,21]-AHC(3-41)] (H-[dY][dP]PISLDLTFHLLRE[Nle]LE[Nle]AKAEQEAEQAALNRLLLEEA-NH2), the “lowering of blood pressure” value in assay [2] was “very significant lowering of blood pressure”.

For the compound “H-SQEPPISLDLTFHLLREMLEMAKAEQEAEQAALNRLLLEEA-NH2 [AHC]”, the “secretory response to maximal concentrations” value in assay [1] (maximal (1-5 nM) concentrations) is on record as “at a plateau level”.

With “H-SQEPPISLDLTFHLLREVLEMTRADQLAQQAHSNRRLLDIA-NH2 [[Arg^23,36]-oCRF]”, the “lowering of blood pressure” value in assay [2] is reported as “very significant lowering of blood pressure”.
